Starred links: 1 amine or outer side, 2 acyl side, 3 side chain; linkers in the order of their positions; H or OH if unused. Positions of bridges follow the written chain, without caps; N, C: chain ends. Non-standard residues stand in square brackets, D forms with d. Residues, ends and D or L forms follow the SMILES beside them. Chains are numbered I, II in the order given. Actinocin(9to1) = Cc1c2oc3c(C)ccc(C(=O)[*:1])c3nc-2c(C(=O)[*:2])c(N)c1=O; NMeV = CN[C@H](C(=O)O)C(C)C; Sar = CNCC(=O)O
Assays:
p33^QIK [1] = assay: In-gel kinase assay (MBP substrate) of p33^QIK activity in treated NIH3T3 cultures; type: cell-based, mouse; details: for TPA-induced deactivation of p33^QIK: quiescent NIH3T3, co-treatment with 100 ng/ml TPA; for serum-induced down-regulation of p33^QIK activity: quiescent NIH3T3, co-treatment with 10% serum
Experimental: (§1) Mouse NIH3T3 fibroblast cultures were maintained in Dulbecco's modified Eagle's medium (DMEM)(BRL/GIBCO, Grand Island, N.Y.) supplemented with 5% calf serum, 50 units/ml penicillin, and 5 mcg/ml streptomycin, and cultivated at 37° C.
(§2) Mouse 10T1/2 fibroblast cultures were maintained in Basal medium Eagle (BRL/GIBCO, Grand Island, N.Y.) supplemented with 10% heat-inactivated fetal bovine serum, 50 U/ml penicillin, and 5 μg/ml streptomycin, and cultivated at 37° C. Cells synchronized in quiescent state were growth-arrested by serum starvation for 48 hr. Actinomycin D (ActD), cycloheximide (CHXM), 12-0-tetradecanoylphorbol 13-acetate (TPA), staurosporine (STSP) (Sigma Chemical, St. Louis, Mo.), sodium fluoride (NaF), sodium orthovanadate (Na3VO4) (Fisher Scientific, Pittsburgh, Pa.), and FR901228 (FR)(NCI, Frederick, Md.) were diluted in cultured medium before treatment of cultured cells. A broad range caspase inhibitor Z-Asp-[(2,6-dichlorobenzoyl)oxy]methane (Z-D-CH2-DCB) (Dolle et al., 1994; Mashima et al., 1995)(CALBIOCHEM, La Jolla, Calif.) was dissolved in dimethyl sulfoxide and diluted in cultured medium for treatment. Recombinant human Caspase-3 was purchased from Alexis Biochemicals (San Diego, Calif.). Protein phosphatase 1 (PP1) and Lambda protein phosphatase (λPPase) were purchased from NE BioLabs (Beverly, Mass.). Production of rabbit polyclonal antibody Ab-KQ to p63^Krsl and p33^QIK was made using peptide sequences of Krsl as antigens (Alpha Diagnostic International, San Antonio, Tex.). UV irradiation was carried out using a UV Crosslinker (Stratagene, La Jolla, Calif.).
(§3) Cells were lysed with 30 strokes of a tight-fitting Dounce homogenizer in lysis A buffer (10 mM KH2PO4, 1 mM EDTA, 5 mM EGTA, 10 mM MgCl2, 50 mM […], 1 mM Na3VO4, 2 mM dithiothreitol) (Wang et al., 1992). Cytoplasmic proteins (S20) were isolated from the supernatants after centrifugation of crude lysates at 20,000 ×g for 20 min. Protein concentration in S20 was measured by using the BCA assay (Pierce, Rockford, Ill.). Immunoprecipitation of p33^QIK was carried out by incubation of S20 with the specific antibody Ab-KQ at 0° C. for 1 hr. Immune complexes were adsorbed to Pansorbin (Staphylococcus aureus) (CALBIOCHEM, La Jolla, Calif.) at 0° C. for 30 min and washed with STE buffer (50 mM Tris-HCl, pH 7.0, 150 mM NaCl, 1 mM Na2 EDTA) supplemented with 0.1 mM DTT and 0.1% NP-40 and ST buffer supplemented with 1 mM DTT.
(§4) MBP (BRL/GIBCO, Grand Island, N.Y.) was used as a substrate in the assay and the in-gel kinase assay was performed as previously described (Wang et al., 1992). Briefly, 10% SDS-polyacrylamide gel (SDS-PAG) was copolymerized with 0.4 mg/ml MBP. Cellular proteins were resolved in the MBP-immobilized SDS-PAG, followed by rinsing the gel with 20% isopropanol in buffer B (100 mM Tris, pH 8, 5 mM β-mercaptoethanol). The gel was denatured in buffer B supplemented with 6 M guanidine-HCl and renatured with buffer B supplemented with 0.04% Tween 40 (Kameshita and Fujisawa, 1989). Kinase reaction was carried out by incubating the gel with kinase buffer (20 Mm Tris, pH 7.2, 10 mM MgCl2, 15 mM β-glycerolphosphate) supplemented with 50 μM γATP and 50 μCi of [γ-^32P]ATP at 22° C. for 30 min. The gel was washed with 1% sodium pyrophosphate in 5% trichloroacetic acid. Protein kinases which phosphorylated MBP in the gel were detected by autoradiography of the [γ^32P]-labeled MBP.

p44/42^Erk = type: cell-based, mouse; details: quiescent NIH3T3 treated with serum or TPA in the presence of ActD or CHXM
Experimental: as §1, §2, §3, §4

NIH3T3 cultures = assay: Cell death in quiescent NIH3T3 cultures; type: cell-based, mouse; details: quiescent cultures treated with ActD or CHXM for 3 hr
NIH3T3 cells = assay: Flow cytometric analysis of DNA content (cell cycle phase); type: cell-based, mouse
Experimental: After rinsing with phosphate buffered saline (PBS), cells were trypsinized from culture dishes, rinsed with Ca^++ and Mg^++ free PBS, fixed in 70% cold ethanol, and stained with 10 μg/ml propidium iodide (PI) for 30 min (Darzynkiewicz et al., 1995). Flow cytometry analysis was performed on the Coulter EPICS Elite Cytometer (Hialeah, Fla.) using 15 mW air-cooled argon laser producing 488-nm light in which PI fluorescence light emission is collected with a 610LPDC filter. Extended analysis of DNA content and calculation of the percentage of cells in each phase of the cell cycle were performed on Multicycle software (Phoenix Flow System, San Diego, Calif.).

p33^QIK [2] = assay: In-gel kinase assay of p33^QIK activity in 10T1/2 cultures; type: cell-based; details: mouse fibroblast 10T1/2 cultures treated with FR
Experimental: as §2, with “Production of rabbit polyclonal antibody Ab-KQ to p63^Krsl and p33^QIK was made using peptide sequences of Krsl as antigens (Alpha Diagnostic International, San Antonio, Tex.). UV irradiation was carried out using a UV Crosslinker (Stratagene, La Jolla, Calif.).” left out
(§5) MBP (BRL/GIBCO, Grand Island, N.Y.) was used as a substrate in the assay and the in-gel kinase assay was performed as previously described (Wang et al., 1992). […] Protein kinases which phosphorylated MBP in the gel were detected by autoradiography of the [γ^32P]-labeled MBP.

33 kDa-MBP kinase = details: MCF-7 and MDA-MB361 cells treated with FR (Rajgolikar et al., 1998); cited from earlier work
p63^Krsl = assay: In-gel kinase assay (MBP substrate) of p63^Krsl activity in treated NIH3T3 cultures; type: cell-based, mouse; details: quiescent NIH3T3 cultures, 100 nM STSP, 2 hr
Experimental: as §1
Mouse 10T1/2 fibroblast cultures were maintained in Basal medium Eagle (BRL/GIBCO, Grand Island, N.Y.) supplemented with 10% heat-inactivated fetal bovine serum, 50 U/ml penicillin, and 5 μg/ml streptomycin, and cultivated at 37° C. Cells synchronized in quiescent state were growth-arrested by serum starvation for 48 hr. […]
Cells were lysed with 30 strokes of a tight-fitting Dounce homogenizer in lysis A buffer (10 mM KH2PO4, 1 mM EDTA, 5 mM EGTA, 10 mM MgCl2, 50 mM […], 1 mM Na3VO4, 2 mM dithiothreitol) (Wang et al., 1992). […] Protein concentration in S20 was measured by using the BCA assay (Pierce, Rockford, Ill.). […]
as §5

cells = details: cited from earlier work
Caspase-3 = molecular target: T1, Caspase-3 (Homo sapiens, UniProt P42574); assay: Inhibition of caspase-3 modification of immune complexes; type: biochemical; details: 5 μM inhibitor, 0.2 μg Caspase-3, 37° C., 30 min
T1 construct: purchased Alexis Biochemicals (San Diego, Calif.)
T1 sequence (P42574 29-175 limits assumed): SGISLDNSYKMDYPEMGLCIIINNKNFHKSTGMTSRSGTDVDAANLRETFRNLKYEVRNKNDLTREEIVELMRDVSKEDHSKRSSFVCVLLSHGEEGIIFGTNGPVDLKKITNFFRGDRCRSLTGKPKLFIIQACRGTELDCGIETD
Experimental: Both p63^Krsl and p33^QIK in 10 μg of cytosolic lysates (S20) were immunoprecipitated by Ab-KQ (lanes 2 to 4 and 6 to 8), followed by reatment with 0.2 μg Caspase-3 (C)(lanes 3, 4, 7 and 8) in the presence of 5 μM caspase inhibitor Z-D-CH2-DCB (C+I)(lanes 4 and 8) at 37° C. for 30 min. The kinase activities of p63^Krsl, p35, and p33^QIK in 5 μg of S20 (lanes 1 and 5) and in the immune complexes were determined by the in-gel kinase assay using MBP as a substrate. Bars indicate p63^Krsl p35, and p33^QIK.
Mouse 10T1/2 fibroblast cultures were maintained in Basal medium Eagle (BRL/GIBCO, Grand Island, N.Y.) supplemented with 10% heat-inactivated fetal bovine serum, 50 U/ml penicillin, and 5 μg/ml streptomycin, and cultivated at 37° C. Cells synchronized in quiescent state were growth-arrested by serum starvation for 48 hr. Actinomycin D (ActD), cycloheximide (CHXM), 12-0-tetradecanoylphorbol 13-acetate (TPA), staurosporine (STSP) (Sigma Chemical, St. Louis, Mo.), sodium fluoride (NaF), sodium orthovanadate (Na3VO4) (Fisher Scientific, Pittsburgh, Pa.), and FR901228 (FR)(NCI, Frederick, Md.) were diluted in cultured medium before treatment of cultured cells. […]

[3] = quiescent NIH3T3, absence of serum, 5 μg/ml ActD or 10 μg/ml CHXM, 1 or 3 hr
[4] = 5 μg/ml ActD or 10 μg/ml CHXM, 1 or 3 hr
[5] = proliferating NIH3T3 cultures, 5 nM FR, 24 hr
[6] = NIH3T3 synchronized by serum starvation, 18 hr serum, then 10 nM STSP for 24 hr

In the case of `Cc1c2oc3c(C)ccc(C(=O)N[C@@H]4C(=O)N[C@H](C(C)C)C(=O)N5CCC[C@H]5C(=O)N(C)CC(=O)N(C)[C@@H](C(C)C)C(=O)O[C@@H]4C)c3nc-2c(C(=O)N[C@@H]2C(=O)N[C@H](C(C)C)C(=O)N3CCC[C@H]3C(=O)N(C)CC(=O)N(C)[C@@H](C(C)C)C(=O)O[C@@H]2C)c(N)c1=O` [ActD, Actinomycin D] (I: T[dV]P[Sar][NMeV] / II: T[dV]P[Sar][NMeV]; ester I:1-I:C, II:1-II:C; linker I:N-II:N via Actinocin(9to1)), the “kinase activity of p33^QIK” value (p33^QIK [1]; [3]) is reported as “significant increases of p33^QIK activity”, the “TPA-induced deactivation of p33^QIK” value (p33^QIK [1]; [4]) is reported as “blockage of the TPA-induced deactivation of p33^QIK but also in an increase in the kinase activity of p33^QIK” and the “serum-induced down-regulation of p33^QIK activity” value (p33^QIK [1]; [4]) is reported as “blocked the serum-induced down-regulation of p33^QIK activity”. For the same molecule, the “kinase activity of p44/42^Erk” value (p44/42^Erk) was “constant activation of p44/42^Erk” and the cell death (NIH3T3 cultures) was “extensive cell death occurred”.
With `C[C@@H]1C[C@@H]([C@H](O)CC2CC(=O)NC(=O)C2)C(=O)[C@@H](C)C1` [CHXM, cycloheximide] the “kinase activity of p33^QIK” value (p33^QIK [1]; [3]) was “significant increases of p33^QIK activity”, the “TPA-induced deactivation of p33^QIK” value (p33^QIK [1]; [4]) was “blockage of the TPA-induced deactivation of p33^QIK but also in an increase in the kinase activity of p33^QIK” and the “serum-induced down-regulation of p33^QIK activity” value (p33^QIK [1]; [4]) was “blocked the serum-induced down-regulation of p33^QIK activity”. For the same molecule, the “kinase activity of p44/42^Erk” value (p44/42^Erk) was “constant activation of p44/42^Erk” and the cell death (NIH3T3 cultures) was “extensive cell death occurred”.
In the case of `C/C=C1\NC(=O)[C@H]2CSSCC/C=C/[C@H](CC(=O)N[C@H](C(C)C)C(=O)N2)OC(=O)[C@H](C(C)C)NC1=O` [FR, FR901228], the “kinase activity of p33^QIK” value (p33^QIK [1]; [5]) is reported as “p33^QIK activity was induced”, the “cell population in each phase of the cell cycle” value (NIH3T3 cells; [5]) is reported as “growth arrest of cells in G0/G1 phase was evident” and the “kinase activity of p33^QIK” value (p33^QIK [2]) is reported as “Activation of p33^QIK was also detected”. The “33 kDa-MBP kinase activity” value (33 kDa-MBP kinase) was “induction of a 33 kDa-MBP kinase activity”.
In the case of `CN[C@@H]1C[C@H]2O[C@@](C)([C@@H]1OC)n1c3ccccc3c3c4c(c5c6ccccc6n2c5c31)C(=O)NC4` [STSP, staurosporine], the “kinase activity of p33^QIK” value (p33^QIK [1]; [6]) is reported as “activation of p33^QIK was detected”, the “kinase activity of p63^Krsl” value (p63^Krsl) is reported as “activated p63^Krsl” and the “cell population in each phase of the cell cycle” value (NIH3T3 cells; [6]) is reported as “a major population of cells was arrested in G0/G1 state”. For the same molecule, the “concentration arresting cells in G2 phase” value (cells; high concentration) was 100 to 150 nM and the “concentration arresting cells in early G1 phase” value (cells; low concentration) was 2 to 20 nM.
For `O=C(O)CC(NC(=O)OCc1ccccc1)C(=O)COC(=O)c1c(Cl)cccc1Cl` [Z-D-CH2-DCB, Z-Asp-[(2,6-dichlorobenzoyl)oxy]methane], the “induction of p33^QIK activity” value (p33^QIK [1]; cultures preincubated with caspase inhibitor prior to serum starvation and osmotic stress) was “neither blocked induction of p33^QIK activity” and the “blockage of caspase-3 induced changes in p63^Krsl, p35 and p33^QIK activity” value (Caspase-3) was “completely blocked”.

— patent publication US20030170252A1, “Antibody compositions specific for p33QIK and p63Krs1 polypeptides and uses thereof” (priority 2000, published 2003)
